Results from PubChem BioAssay AID1259418 (Broad Institute, 2018).
Several values for one entry are separate records, joined by “and”; a condition that tells them apart may be missing. Identical values can stand only once. Inconclusive results are not listed. Activity calls are given as the source filed them.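 How the source made its calls: active means fitted half-maximal concentration of signal decrease at or below twice the sample's top tested concentration; inconclusive means flat curve between -70 and -30 percent, or poor fit; inactive means flat within 30 percent, signal rise, or potency above limit.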

These molecules were tested against T. gondii ME49Luc in IFN-y HeLa, luciferase, 72 h (assay: T. gondii growth inhibition with IFN-gamma, dose response, cell-based, ME49Luc, HeLa, luciferase, 72 h (AID 1259418)).

**Q.** Cc1ccc(C)c(NC(=O)N2CCN(Cc3nc(-c4cccc(Cl)c4)oc3C)CC2)c1 was tested. Which AC50 did it give?
**A.** > 39 µM (inactive)

**Q.** COc1ccc(N(Cc2nc(-c3ccc(C)cc3)oc2C)S(=O)(=O)c2ccccc2)cc1 was tested. Which AC50 did it give?
**A.** 15.2 µM

**Q.** For COc1ccc(-c2nc(CN(c3ccccc3)S(=O)(=O)c3ccccc3)c(C)o2)cc1, which AC50 is on record?
**A.** 9.08 µM

**Q.** How did the AC50 turn out when O=C(c1cccc(F)c1)N1CCCCN2[C@H](C1)[C@@H](c1ccc(C#CC3(O)CCCC3)cc1)[C@@H]2CO was run?
**A.** 11 µM and 29.4 µM

**Q.** How did the AC50 turn out when OC[C@@H]1Nc2ccc(C#Cc3ccc(F)cc3)cc2[C@@H]2[C@H]1CCN2Cc1ccc2c(c1)OCO2 was run?
**A.** 15.4 µM and 23.4 µM

**Q.** How did the AC50 turn out when COc1cccc(S(=O)(=O)N2CCCCN3[C@@H](CO)[C@@H](c4ccc(C#CCC(C)C)cc4)[C@@H]3C2)c1 was run?
**A.** 4.66 µM and 5.61 µM and 2.22 µM

**Q.** COc1cccc(CNC2=NCCNC23CCN(S(=O)(=O)c2ccc(Cl)s2)CC3)c1 was tested. Which AC50 did it give?
**A.** 11.6 µM

**Q.** CC(C)CNc1nc2c(cc1C(=O)NCC1CC1)CCN(c1ccncn1)CC2 was tested. Which AC50 did it give?
**A.** 19 µM

**Q.** Which AC50 does the source give for CC(C)C#Cc1ccc([C@H]2[C@@H](C#N)N(C(=O)c3cccc(F)c3)[C@H]2CO)cc1 here?
**A.** > 39 µM (inactive)

**Q.** For Cc1ccccc1Cn1c(CN2CCC(C(=O)NCCCN3CCCC3)CC2)cc2ccccc21, which AC50 is on record?
**A.** 18.2 µM

**Q.** With CCC(C)Nc1nc(-c2ccc(OC)cc2)nc2ccccc12 (stereo not drawn) as the molecule, how does the AC50 read?
**A.** > 39 µM (inactive)

**Q.** With CCOc1ccc(N(Cc2nc(-c3ccc(OC)cc3)oc2C)S(=O)(=O)c2cccs2)cc1 as the molecule, how does the AC50 read?
**A.** 4.79 µM

**Q.** How did the AC50 turn out when CC(C)Oc1ccc(NC(=O)c2nc3c(n2C(C)C)CCN(C(=O)c2ccccc2)C3)cc1 was run?
**A.** 10.6 µM

**Q.** O=C(c1cccn2c(-c3ccc(F)cc3)nnc12)N1CCC(O)(c2ccc(Cl)cc2)CC1 was tested. Which AC50 did it give?
**A.** 25.4 µM

**Q.** How did the AC50 turn out when COc1cccc(-c2nc(Cn3c(=O)c4c(C)cc(C)nc4n(-c4ccccc4)c3=O)c(C)o2)c1OC was run?
**A.** > 39 µM (inactive)

**Q.** How did the AC50 turn out when Cc1ccc(NC(=O)N2CCN(Cc3nc(-c4ccccc4C)oc3C)CC2)cc1F was run?
**A.** > 39 µM (inactive)

**Q.** O=C(NCc1ccccc1)C1CC2(CO1)CN(C(=O)c1ccc(F)cc1)c1ccccc12 (stereo not drawn) was tested. Which AC50 did it give?
**A.** > 39 µM (inactive)

**Q.** How did the AC50 turn out when Cc1ccccc1-c1nc(CN2CCN(C(=O)NC3CCCC3)CC2)c(C)o1 was run?
**A.** > 39 µM (inactive)

**Q.** Which AC50 does the source give for CN(C)C(=O)c1cccc(-c2ccc3c(c2)[C@@H]2[C@@H](CCN2C(=O)Cc2ccccc2)[C@@H](CO)N3)c1 here?
**A.** 17.6 µM

**Q.** How did the AC50 turn out when CC(C)(C)NC(=O)[C@@H]1CC2CCCCC2CN1C[C@@H](O)[C@H](Cc1ccccc1)NC(=O)[C@H](CC(N)=O)NC(=O)c1ccc2ccccc2n1 (stereo partly drawn) was run?
**A.** 17.8 µM

**Q.** Which AC50 does the source give for Cc1ccc(-c2coc(-c3ccc(NC(=O)c4cccs4)cc3)n2)c(C)c1 here?
**A.** 13.8 µM

**Q.** How did the AC50 turn out when Cc1cccc(S(=O)(=O)N2C[C@H]3[C@@H](c4ccccc42)[C@@H](CO)N3C(=O)c2ccccc2)c1 was run?
**A.** > 39 µM (inactive)

**Q.** COc1ccc(-c2nc3c(s2)CN(S(=O)(=O)c2cc(C)cc(C)c2)CC3)cc1 was tested. Which AC50 did it give?
**A.** 3.89 µM and 11.8 µM

**Q.** How did the AC50 turn out when Cc1ccc(CSC2=Nc3ccccc3C3=NC(CCC(=O)NCCc4ccccc4)C(=O)N23)cc1 (stereo not drawn) was run?
**A.** 30.8 µM

**Q.** How did the AC50 turn out when COc1cccc(C#Cc2ccc([C@@H]3[C@@H](C#N)N[C@@H]3CO)cc2)c1 was run?
**A.** 38.4 µM

**Q.** How did the AC50 turn out when CCC(=O)N1CC[C@@H]2[C@H]1c1cc(-c3ccc(C#N)cc3)ccc1N(C)[C@H]2CO was run?
**A.** > 42 µM (inactive)

**Q.** Which AC50 does the source give for CC(C)CC(=O)N1CCC2(CC1)Nc1cc(F)ccc1-n1cccc12 here?
**A.** > 39 µM (inactive)

**Q.** Cc1ccccc1S(=O)(=O)N1CCCCN2[C@H](C1)[C@H](c1ccc(C#CCN(C)C)cc1)[C@@H]2CO was tested. Which AC50 did it give?
**A.** 18.6 µM

**Q.** CCOc1ccc(-c2nc(CN(c3ccc(OC)cc3)S(=O)(=O)c3cccs3)c(C)o2)cc1 was tested. Which AC50 did it give?
**A.** 8.01 µM and 17.4 µM

**Q.** O=C(Nc1c(C(=O)NCc2cccnc2)[nH]c2ccccc12)c1ccc(Cl)cc1 was tested. Which AC50 did it give?
**A.** 21.2 µM

**Q.** Cc1ccc(C(=O)N2CCC3(CC2)Nc2ccc(Cl)cc2-n2cccc23)cc1F was tested. Which AC50 did it give?
**A.** > 39 µM (inactive)

**Q.** Which AC50 does the source give for Cc1ccc(-c2nc(CN3CCN(C(=O)NC4CCCC4)CC3)c(C)o2)cc1 here?
**A.** 20.9 µM

**Q.** How did the AC50 turn out when COc1cccc(S(=O)(=O)N2CCCCN3[C@H](CO)[C@H](c4ccc(-c5ccccc5)cc4)[C@H]3C2)c1 was run?
**A.** 5.11 µM

**Q.** Which AC50 does the source give for CC(C)C#Cc1ccc([C@H]2[C@@H](CO)N3C(=O)CN(S(=O)(=O)c4ccccc4)C[C@H]23)cc1 here?
**A.** 13.6 µM

**Q.** CCCNC(=O)N1C[C@@H]2N[C@H](C1)C2c1ccc(-c2cccc(F)c2)cc1 (stereo partly drawn) was tested. Which AC50 did it give?
**A.** 18.2 µM

**Q.** With O=C(CCC1N=C2c3ccccc3N=C(SCc3cccc(F)c3)N2C1=O)NCc1cccs1 (stereo not drawn) as the molecule, how does the AC50 read?
**A.** 20.3 µM

**Q.** How did the AC50 turn out when O=C(CC1N=C2c3ccccc3N=C(SCc3ccc(F)cc3)N2C1=O)NCc1cccs1 (stereo not drawn) was run?
**A.** 35 µM

**Q.** Which AC50 does the source give for O=C1CCc2cc(NC(=O)c3ccccc3F)ccc2N1 here?
**A.** 29.7 µM

**Q.** Which AC50 does the source give for OC(c1cc(C(F)(F)F)nc2c(C(F)(F)F)cccc12)C1CCCCN1 (stereo not drawn) here?
**A.** 6.5 µM

**Q.** For CC(C)C#Cc1ccc([C@@H]2[C@H](CO)N3C(=O)CN(S(=O)(=O)c4ccccc4)C[C@@H]23)cc1, which AC50 is on record?
**A.** > 39 µM (inactive)

**Q.** COc1cc([C@@H]2c3cc4c(cc3C(OC3OC5COC(C)OC5C(O)C3O)C3OCC(=O)[C@@H]32)OCO4)cc(OC)c1O (stereo partly drawn) was tested. Which AC50 did it give?
**A.** 8.96 µM

**Q.** For O=C(CC1N=C2c3ccccc3N=C(SCc3ccccc3F)N2C1=O)NCCc1ccccc1 (stereo not drawn), which AC50 is on record?
**A.** > 39 µM (inactive)

**Q.** COc1ccc(-c2nc(CN(c3cccc(OC)c3)S(=O)(=O)c3ccccc3)c(C)o2)cc1 was tested. Which AC50 did it give?
**A.** 9.75 µM

**Q.** How did the AC50 turn out when O=C(CCC1N=C2c3ccccc3N=C(SCc3ccc(F)cc3)N2C1=O)NC1CCCCC1 (stereo not drawn) was run?
**A.** 16.2 µM

**Q.** For O=C(Cc1cccnc1)N1CC(=O)N2[C@H](CO)[C@H](c3ccc(C#CC4CCCCC4)cc3)[C@@H]2C1, which AC50 is on record?
**A.** 17.9 µM

**Q.** For COc1ccc(-c2nc(C)c(-c3ccc(SCc4cc(C)ccc4C)nn3)s2)cc1, which AC50 is on record?
**A.** > 39 µM (inactive)

**Q.** CC(C)CC#Cc1ccc([C@@H]2[C@H](CO)N3C(=O)CN(C(=O)c4cccc(F)c4)C[C@@H]23)cc1 was tested. Which AC50 did it give?
**A.** 18.2 µM

**Q.** With COc1ccc(C#Cc2ccc([C@@H]3[C@@H](CO)N4C(=O)CN(C(=O)NC(C)C)C[C@@H]34)cc2)cc1 as the molecule, how does the AC50 read?
**A.** 20.4 µM

**Q.** How did the AC50 turn out when COc1ccc(N(Cc2nc(-c3ccccc3OC)oc2C)S(=O)(=O)c2cccs2)cc1 was run?
**A.** 3.72 µM

**Q.** CC(C)CC#Cc1ccc([C@H]2[C@H]3CN(C(=O)c4cccc(F)c4)CC(=O)N3[C@H]2CO)cc1 was tested. Which AC50 did it give?
**A.** 20.3 µM

**Q.** For CC(C)NC(=O)N1CC(=O)N2[C@@H](CO)[C@H](c3ccc(/C=C/c4ccccc4)cc3)[C@@H]2C1, which AC50 is on record?
**A.** 16.8 µM

**Q.** CCN1C(=O)CCc2cc(NC(=O)Cc3cccc(OC)c3)ccc21 was tested. Which AC50 did it give?
**A.** 23 µM

**Q.** For CCOc1ccccc1-c1nc(CN(c2ccc(C)cc2)S(=O)(=O)c2cccs2)c(C)o1, which AC50 is on record?
**A.** 11.2 µM

**Q.** With C[C@H](O[C@H]1OCCN(Cc2n[nH]c(=O)[nH]2)[C@H]1c1ccc(F)cc1)c1cc(C(F)(F)F)cc(C(F)(F)F)c1 as the molecule, how does the AC50 read?
**A.** 15.4 µM

**Q.** COc1ccccc1-c1nc(CN2CCc3c(sc4c3CCCC4)C2c2ccccc2)c(C)o1 (stereo not drawn) was tested. Which AC50 did it give?
**A.** 7.72 µM

**Q.** How did the AC50 turn out when COc1ccccc1N(Cc1nc(-c2ccc(C)cc2)oc1C)S(=O)(=O)c1ccc(C)cc1 was run?
**A.** 10.3 µM

**Q.** For CN1C(=O)c2cc(NC(=O)c3cccc(F)c3)ccc2OC[C@H]2O[C@@H](CC(=O)NCC3CCCCC3)CC[C@@H]21, which AC50 is on record?
**A.** 21.5 µM

**Q.** For COc1ccc(-c2nc(CN(c3ccccc3OC)S(=O)(=O)c3ccccc3)c(C)o2)cc1, which AC50 is on record?
**A.** 7.78 µM

**Q.** For OC[C@@H]1[C@@H](c2ccc(-c3cccc(F)c3)cc2)[C@@H]2CN(Cc3cncnc3)CCCCN12, which AC50 is on record?
**A.** 36.1 µM

**Q.** Which AC50 does the source give for COc1ccc(-c2nc(Cn3nnc(-c4nc(-c5ccncc5)no4)c3C)c(C)o2)cc1 here?
**A.** > 39 µM (inactive)

**Q.** With O=C(Nc1ccc(Cl)cc1)N1[C@@H]2CNC[C@H]1C2c1ccc(-c2ccccc2)cc1 (stereo partly drawn) as the molecule, how does the AC50 read?
**A.** 2.02 µM and 2.94 µM

**Q.** COc1ccc(N(Cc2nc(-c3ccc(OC)c(OC)c3)oc2C)S(=O)(=O)c2ccccc2)cc1 was tested. Which AC50 did it give?
**A.** 9.25 µM

**Q.** Which AC50 does the source give for CCCC(C)c1c(-c2ccccc2)ncn1Cc1cnc(C)cn1 (stereo not drawn) here?
**A.** 33.4 µM
